Values quoted from earlier work, collected in patent US6699676B1, “Uses of ouabain and ouabain-like molecules in apoptosis related pathologies” (Corporation du Centre de Recherche du Centre, Hospitalier …, priority 1999, dated 2004).

System: VSMC
Conditions: moderate elevation of [Ca2+]i, reference (37); cited from earlier work

Structure (SMILES) | effect on VSMC apoptosis
C/C=C(/C)C(=O)O[C@H]1C(C)=C2[C@H]([C@@H]1OC(=O)CCCCCCC)[C@@](C)(OC(C)=O)C[C@H](OC(=O)CCC)[C@@]1(O)[C@H]2OC(=O)[C@@]1(C)O [thapsigargin] | did not observe any effect
C[C@H](CCC(=O)O)C[C@H](C)C[C@H](C)C(=O)/C=C(\O)[C@H](C)C[C@H](C)C/C=C/[C@@H](C)[C@@H](O)[C@@H](C)[C@@H](O)C[C@@H]1CC[C@@](C)([C@H]2CC[C@@](C)([C@@H](C)O)O2)O1 [ionomycin] | did not observe any effect
